According to patent US20230159532A1, “PARATHYROID HORMONE (PTH) RECEPTOR ANTAGONISTS AND USES THEREOF” (Crinetics Pharmaceuticals, Inc., priority 2021, published 2023):

biological target: T1, human PTHR1 receptor (Homo sapiens, UniProt Q03431); test: Competitive antagonist binding assay for hPTH-R1 (radioactive competition binding, SPA beads); conditions: human PTHR1 membranes, [125I]-[Nle8,18,Tyr34]-PTH(1-34) 0.2 nM, 90 minutes at room temperature; read-out: hPTHR1 Ki
T1 construct: purchased Eurofins HTS030M
T1 sequence (Q03431 27-593): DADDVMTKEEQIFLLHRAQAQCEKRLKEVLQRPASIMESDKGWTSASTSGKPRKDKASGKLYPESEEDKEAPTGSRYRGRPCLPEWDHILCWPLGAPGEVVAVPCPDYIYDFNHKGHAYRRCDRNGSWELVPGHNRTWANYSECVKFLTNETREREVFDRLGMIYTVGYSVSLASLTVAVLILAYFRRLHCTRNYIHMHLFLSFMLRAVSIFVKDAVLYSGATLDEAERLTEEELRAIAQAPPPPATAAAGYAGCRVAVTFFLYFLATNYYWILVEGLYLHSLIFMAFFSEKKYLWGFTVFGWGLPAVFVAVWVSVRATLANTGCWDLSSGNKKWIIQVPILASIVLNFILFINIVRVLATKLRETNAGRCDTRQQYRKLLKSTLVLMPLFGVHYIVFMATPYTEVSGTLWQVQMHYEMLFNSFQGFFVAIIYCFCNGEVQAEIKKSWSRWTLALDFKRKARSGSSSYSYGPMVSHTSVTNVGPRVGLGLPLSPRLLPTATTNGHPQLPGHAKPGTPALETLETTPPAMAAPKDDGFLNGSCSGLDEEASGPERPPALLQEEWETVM
How it was run: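 Human PTHR1 membranes on SPA beads incubated 90 min at room temperature with compound (typically 0-10,000 nM final) and 0.2 nM [125I]-[Nle8,18,Tyr34]-PTH(1-34) in HEPES buffer with MgCl2, CaCl2, BSA, Triton X-100 and protease inhibitors, pH 7.4. Scintillation signal read; Ki values derived.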

SMILES	Ki [nM]
CCN1C(=O)N(c2c(F)cc(NCCNC[C@H](C)O)cc2F)c2cc(C#N)ccc2-c2cc(F)cnc21 [1-199, 10-{2,6-difluoro-4-[(2-{[(2S)-2-hydroxypropyl]amino}ethyl)amino]phenyl}-8-ethyl-4-fluoro-9-oxo-6,8,10-triazatricyclo[9.4.0.0^2,7]pentadeca-1(11),2(7),3,5,12,14-hexaene-13-carbonitrile]	< 100
CCN1C(=O)N(c2c(F)cc(NCCNCC(=O)O)cc2F)c2cc(Cl)ccc2-c2cc(Cl)cnc21 [1-242, 2-({2-[(4-{4,13-dichloro-8-ethyl-9-oxo-6,8,10-triazatricyclo[9.4.0.0^2,7]pentadeca-1(11),2(7),3,5,12,14-hexaen-10-yl}-3,5-difluorophenyl)amino]ethyl}amino)acetic acid]	< 100
CCN1C(=O)N(c2c(F)cc(NCCNCCCC(=O)O)cc2F)c2cc(C#N)ccc2-c2cc(F)cnc21 [1-83, 4-({2-[(4-{13-cyano-8-ethyl-4-fluoro-9-oxo-6,8,10-triazatricyclo[9.4.0.0^2,7]pentadeca-1(11),2(7),3,5,12,14-hexaen-10-yl}-3,5-difluorophenyl)amino]ethyl}amino)butanoic acid]	< 100
CCN1C(=O)N(c2c(F)cc(NCCNC)cc2F)c2cc(Cl)cc(OC)c2-c2cc(F)cnc21 [1-87, 13-chloro-10-(2,6-difluoro-4-{[2-(methylamino)ethyl]amino}phenyl)-8-ethyl-4-fluoro-15-methoxy-6,8,10-triazatricyclo[9.4.0.0^2,7]pentadeca-1(11),2(7),3,5,12,14-hexaen-9-one]	< 100
CC(C)N1C(=O)N(c2c(F)cc(NCCNCCO)cc2F)c2cc(C#N)ccc2-c2cc(Cl)cnc21 [1-92, 4-chloro-10-[2,6-difluoro-4-({2-[(2-hydroxyethyl)amino]ethyl}amino)phenyl]-9-oxo-8-(propan-2-yl)-6,8,10-triazatricyclo[9.4.0.0^2,7]pentadeca-1(11),2(7),3,5,12,14-hexaene-13-carbonitrile]	< 100
CCN1C(=O)N(c2c(F)cc(N(C)CCNC)cc2F)c2cc(C#N)ccc2-c2cc(Cl)cnc21 [1-146, 4-chloro-10-(2,6-difluoro-4-{methyl[2-(methylamino)ethyl]amino}phenyl)-8-ethyl-9-oxo-6,8,10-triazatricyclo[9.4.0.0^2,7]pentadeca-1(11),2(7),3,5,12,14-hexaene-13-carbonitrile]	< 100
CCN1C(=O)N(c2c(F)cc(NCCNC(CO)CO)cc2F)c2cc(C#N)ccc2-c2cc(Cl)cnc21 [1-157, 4-chloro-10-[4-({2-[(1,3-dihydroxypropan-2-yl)amino]ethyl}amino)-2,6-difluorophenyl]-8-ethyl-9-oxo-6,8,10-triazatricyclo[9.4.0.0^2,7]pentadeca-1(11),2(7),3,5,12,14-hexaene-13-carbonitrile]	< 100
CC(C)N1C(=O)N(c2c(F)cc(NCCNCCO)cc2F)c2cc(Cl)cc(F)c2-c2cc(F)cnc21 [1-114, 13-chloro-10-[2,6-difluoro-4-({2-[(2-hydroxyethyl)amino]ethyl}amino)phenyl]-4,15-difluoro-8-(propan-2-yl)-6,8,10-triazatricyclo[9.4.0.0^2,7]pentadeca-1(11),2(7),3,5,12,14-hexaen-9-one]	< 100
CCN1C(=O)N(c2c(F)cc(NCCN[C@@H](C)CO)cc2F)c2cc(C#N)ccc2-c2cc(F)cnc21 [1-213, 10-{2,6-difluoro-4-[(2-{[(2S)-1-hydroxypropan-2-yl]amino}ethyl)amino]phenyl}-8-ethyl-4-fluoro-9-oxo-6,8,10-triazatricyclo[9.4.0.0^2,7]pentadeca-1(11),2(7),3,5,12,14-hexaene-13-carbonitrile]	< 100
CCN1C(=O)N(c2c(F)cc(NCCNCCN)cc2F)c2cc(C#N)ccc2-c2cc(F)cnc21 [1-237, 10-[4-({2-[(2-aminoethyl)amino]ethyl}amino)-2,6-difluorophenyl]-8-ethyl-4-fluoro-9-oxo-6,8,10-triazatricyclo[9.4.0.0^2,7]pentadeca-1(11),2(7),3,5,12,14-hexaene-13-carbonitrile]	< 100
CCN1C(=O)N(c2c(F)cc(NCCNCCO)cc2F)c2cc(Cl)cc(F)c2-c2cc(Cl)cnc21 [1-60, 4,13-dichloro-10-[2,6-difluoro-4-({2-[(2-hydroxyethyl)amino]ethyl}amino)phenyl]-8-ethyl-15-fluoro-6,8,10-triazatricyclo[9.4.0.0^2,7]pentadeca-1(11),2(7),3,5,12,14-hexaen-9-one]	< 100
CNCCNc1cc(F)c(N2C(=O)N(C)c3ncc(F)cc3-c3c(F)cc(C#N)cc32)c(F)c1 [1-109, 10-(2,6-difluoro-4-{[2-(methylamino)ethyl]amino}phenyl)-4,15-difluoro-8-methyl-9-oxo-6,8,10-triazatricyclo[9.4.0.0^2,7]pentadeca-1(11),2(7),3,5,12,14-hexaene-13-carbonitrile]	< 100
CN1C(=O)N(c2c(F)cc(NCCNC3CCOCC3)cc2F)c2cc(Cl)ccc2-c2cc(Cl)cnc21 [1-35, 4,13-dichloro-10-[2,6-difluoro-4-({2-[(oxan-4-yl)amino]ethyl}amino)phenyl]-8-methyl-6,8,10-triazatricyclo[9.4.0.0^2,7]pentadeca-1(11),2(7),3,5,12,14-hexaen-9-one]	< 100
CNCCNc1cc(F)c(N2C(=O)N(CC3CC3)c3ncc(Cl)cc3-c3ccc(Cl)cc32)c(F)c1 [1-46, 4,13-dichloro-8-(cyclopropylmethyl)-10-(2,6-difluoro-4-{[2-(methylamino)ethyl]amino}phenyl)-6,8,10-triazatricyclo[9.4.0.0^2,7]pentadeca-1(11),2(7),3,5,12,14-hexaen-9-one]	< 100
CCN1C(=O)N(c2c(F)cc(NCCNCCO)cc2F)c2cc(C#N)ccc2-c2cc(F)ccc21 [3-18, 8-[2,6-difluoro-4-({2-[(2-hydroxyethyl)amino]ethyl}amino)phenyl]-10-ethyl-14-fluoro-9-oxo-8,10-diazatricyclo[9.4.0.0^2,7]pentadeca-1(11),2(7),3,5,12,14-hexaene-5-carbonitrile]	< 100
CCN1C(=O)N(c2c(F)cc(NCCNCCO)cc2F)c2cc(Cl)ccc2-c2cc(C(F)(F)F)cnc21 [1-56, 13-chloro-10-[2,6-difluoro-4-({2-[(2-hydroxyethyl)amino]ethyl}amino)phenyl]-8-ethyl-4-(trifluoromethyl)-6,8,10-triazatricyclo[9.4.0.0^2,7]pentadeca-1(11),2(7),3,5,12,14-hexaen-9-one]	< 100
CCN1C(=O)N(c2c(F)cc(N3CC[C@H](N)C3)cc2F)c2cc(Cl)ccc2-c2cc(Cl)cnc21 [1-43, 10-{4-[(3S)-3-aminopyrrolidin-1-yl]-2,6-difluorophenyl}-4,13-dichloro-8-ethyl-6,8,10-triazatricyclo[9.4.0.0^2,7]pentadeca-1(11),2(7),3,5,12,14-hexaen-9-one]	< 100
CCN1C(=O)N(c2c(F)cc(NCCN[C@@H]3CC[C@H]3O)cc2F)c2cc(C#N)ccc2-c2cc(F)cnc21 [1-218, 10-{2,6-difluoro-4-[(2-{[(1R,2R)-2-hydroxycyclobutyl]amino}ethyl)amino]phenyl}-8-ethyl-4-fluoro-9-oxo-6,8,10-triazatricyclo[9.4.0.0^2,7]pentadeca-1(11),2(7),3,5,12,14-hexaene-13-carbonitrile]	< 100
CCN1C(=O)N(c2c(F)cc(NCCNCCO)cc2F)c2cc(C(F)(F)F)ccc2-c2cc(F)cnc21 [1-67, 10-[2,6-difluoro-4-({2-[(2-hydroxyethyl)amino]ethyl}amino)phenyl]-8-ethyl-4-fluoro-13-(trifluoromethyl)-6,8,10-triazatricyclo[9.4.0.0^2,7]pentadeca-1(11),2(7),3,5,12,14-hexaen-9-one]	< 100
Cc1cc(Cl)cc2c1-c1cc(F)cnc1N(C(C)C)C(=O)N2c1c(F)cc(NCCNCCCC(=O)O)cc1F [1-80, 4-{[2-({4-[13-chloro-4-fluoro-15-methyl-9-oxo-8-(propan-2-yl)-6,8,10-triazatricyclo[9.4.0.0^2,7]pentadeca-1(11),2(7),3,5,12,14-hexaen-10-yl]-3,5-difluorophenyl}amino)ethyl]amino}butanoic acid]	< 100
CCN1C(=O)N(c2c(F)cc(NCCNCCOC(N)=O)cc2F)c2cc(C#N)ccc2-c2cc(Cl)cnc21 [1-189, 2-({2-[(4-{4-chloro-13-cyano-8-ethyl-9-oxo-6,8,10-triazatricyclo[9.4.0.0^2,7]pentadeca-1(11),2(7),3,5,12,14-hexaen-10-yl}-3,5-difluorophenyl)amino]ethyl}amino)ethyl carbamate]	< 100
CC(C)N1C(=O)N(c2c(F)cc(NCCNCCO)cc2F)c2cc(Cl)ccc2-c2cc(Cl)cnc21 [1-47, 4,13-dichloro-10-[2,6-difluoro-4-({2-[(2-hydroxyethyl)amino]ethyl}amino)phenyl]-8-(propan-2-yl)-6,8,10-triazatricyclo[9.4.0.0^2,7]pentadeca-1(11),2(7),3,5,12,14-hexaen-9-one]	< 100
